Laboratory results: PubChem BioAssay AID1963428 (Molecular Pharmacology Branch, DTP, NCI, 2024)
Several values for one entry are separate records, joined by “and”; a condition that tells them apart may be missing. Identical values can stand only once.

System: 171881-019-R-J1-PDC complex spheroid growth, % test/control
Assay: Anticancer human tumor 171881-019-R-J1-PDC patient-derived invasive breast carcinoma cell line growth inhibition [Asc]
Conditions: for viability, T/C: stronger effect = lower value
Summary of the method: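 Concentration series start at each agent's clinical Cmax, or at 10 microM when none is established, and drop in half-log steps; agents are applied alone or together to complex spheroids built with HUVEC and hMSC.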

[1] = curve of first compound, second compound 0.1 µM
[2] = curve of first compound, second compound 0.316 µM
[3] = curve of first compound, second compound 1 µM
[4] = second compound 0.1 µM, first compound 0.0316 µM
[5] = second compound 0.1 µM, first compound 0.1 µM
[6] = second compound 0.316 µM, first compound 0.0316 µM
[7] = second compound 0.316 µM, first compound 0.1 µM
[8] = second compound 1 µM, first compound 0.0316 µM
[9] = second compound 1 µM, first compound 0.1 µM
[10] = curve of first compound, second compound 3.16 µM
[11] = curve of first compound, second compound 10 µM
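Wherever viability, T/C is given: spheroids exposed to compounds for 7 days.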

SMILES: NC1CCC(NC2CC2c2ccccc2)CC1 (stereo unspecified) + CNC(C)C(=O)NC1CN(S(=O)(=O)c2cccc(S(=O)(=O)N3CCC4CCC(C(=O)NC(c5ccccc5)c5ccccc5)N4C(=O)C(NC(=O)C(C)NC)C3)c2)CCC2CCC(C(=O)NC(c3ccccc3)c3ccccc3)N2C1=O
- IC50 (curve of first compound, second compound 0.01 µM): > 100 nM
- IC50 (curve of first compound, second compound 0.0316 µM): > 100 nM
- IC50 [1]: > 100 nM
- IC50 [2]: > 100 nM
- IC50 [3]: > 100 nM
- viability, T/C (second compound 0.01 µM, first compound 0.000316 µM): 94.2%
- viability, T/C (second compound 0.01 µM, first compound 0.001 µM): 86.1%
- viability, T/C (second compound 0.01 µM, first compound 0.00316 µM): 82.1%
- viability, T/C (second compound 0.01 µM, first compound 0.01 µM): 87.2%
- viability, T/C (second compound 0.01 µM, first compound 0.0316 µM): 83.9%
- viability, T/C (second compound 0.01 µM, first compound 0.1 µM): 81%
- viability, T/C (second compound 0.0316 µM, first compound 0.000316 µM): 89.9%
- viability, T/C (second compound 0.0316 µM, first compound 0.001 µM): 91.5%
- viability, T/C (second compound 0.0316 µM, first compound 0.00316 µM): 100%
- viability, T/C (second compound 0.0316 µM, first compound 0.01 µM): 84.9%
- viability, T/C (second compound 0.0316 µM, first compound 0.0316 µM): 79.5%
- viability, T/C (second compound 0.0316 µM, first compound 0.1 µM): 79.9%
- viability, T/C (second compound 0.1 µM, first compound 0.000316 µM): 103%
- viability, T/C (second compound 0.1 µM, first compound 0.001 µM): 103%
- viability, T/C (second compound 0.1 µM, first compound 0.00316 µM): 85.4%
- viability, T/C (second compound 0.1 µM, first compound 0.01 µM): 79.1%
- viability, T/C [4]: 91.8%
- viability, T/C [5]: 91.8%
- viability, T/C (second compound 0.316 µM, first compound 0.000316 µM): 90.4%
- viability, T/C (second compound 0.316 µM, first compound 0.001 µM): 86.9%
- viability, T/C (second compound 0.316 µM, first compound 0.00316 µM): 84.2%
- viability, T/C (second compound 0.316 µM, first compound 0.01 µM): 95.9%
- viability, T/C [6]: 85.3%
- viability, T/C [7]: 81.2%
- viability, T/C (second compound 1 µM, first compound 0.000316 µM): 91.5%
- viability, T/C (second compound 1 µM, first compound 0.001 µM): 96.6%
- viability, T/C (second compound 1 µM, first compound 0.00316 µM): 87.9%
- viability, T/C (second compound 1 µM, first compound 0.01 µM): 85.2%
- viability, T/C [8]: 92.8%
- viability, T/C [9]: 86%

SMILES: NC1CCC(NC2CC2c2ccccc2)CC1 (stereo unspecified)
- viability, T/C (compound 0.000316 µM): 97.1% and 106% and 92%
- viability, T/C (compound 0.001 µM): 87.7% and 98.6% and 88.7%
- viability, T/C (compound 0.00316 µM): 94.6% and 94.2% and 80.9%
- viability, T/C (compound 0.01 µM): 92.8% and 95.6% and 87.6%
- viability, T/C (compound 0.0316 µM): 76.2% and 94.8% and 77.5%
- viability, T/C (compound 0.1 µM): 75.7% and 109% and 79.7%
- IC50 (curve of compound): > 100 nM

SMILES: O=C(c1ccc(F)c(F)c1Nc1ccc(I)cc1F)N1CC(O)([C@@H]2CCCCN2)C1
- viability, T/C (compound 0.00316 µM): 86.7% and 86.1% and 88.1%
- viability, T/C (compound 0.01 µM): 104% and 85.4% and 111%
- viability, T/C (compound 0.0316 µM): 121% and 111% and 153%
- viability, T/C (compound 0.1 µM): 150% and 136% and 218%
- viability, T/C (compound 0.316 µM): 65.5% and 51.4% and 121%
- viability, T/C (compound 1 µM): 32.6% and 32.5% and 58.2%
- IC50 (curve of compound): 545 nM and 344 nM and > 1000 nM

SMILES: O=C(c1cc(Cc2n[nH]c(=O)c3ccccc23)ccc1F)N1CCN(C(=O)C2CC2)CC1
- viability, T/C (compound 0.0316 µM): 88.5% and 96.6% and 106%
- viability, T/C (compound 0.1 µM): 90.8% and 103% and 111%
- viability, T/C (compound 0.316 µM): 93.1% and 101% and 107%
- viability, T/C (compound 1 µM): 95.5% and 86% and 102%
- viability, T/C (compound 3.16 µM): 87.9% and 87.8% and 107%
- viability, T/C (compound 10 µM): 92.6% and 79.8% and 122%
- IC50 (curve of compound): > 10000 nM

SMILES: Cc1nc(N2CCC3(CC2)COC(C)C3N)c(CO)nc1Sc1ccnc(N)c1Cl (stereo unspecified) + Cc1c(S(C)(=O)=O)c(-c2cc(F)cc(N3CCN(c4ccc(NS(=O)(=O)c5ccc(NC(CCN6CCC(C(=O)OCCCP(=O)(O)O)CC6)CSc6ccccc6)c(S(=O)(=O)C(F)(F)F)c5)cc4)CC3)c2)c(-c2ccc(Cl)cc2)n1C(C)C
- IC50 [1]: > 3000 nM
- IC50 [2]: > 3000 nM
- IC50 [3]: > 3000 nM
- IC50 [10]: 2200 nM
- IC50 [11]: 884 nM
- viability, T/C (second compound 0.1 µM, first compound 0.00949 µM): 127%
- viability, T/C (second compound 0.1 µM, first compound 0.03 µM): 182%
- viability, T/C (second compound 0.1 µM, first compound 0.0949 µM): 201%
- viability, T/C (second compound 0.1 µM, first compound 0.3 µM): 141%
- viability, T/C (second compound 0.1 µM, first compound 0.949 µM): 118%
- viability, T/C (second compound 0.1 µM, first compound 3 µM): 102%
- viability, T/C (second compound 0.316 µM, first compound 0.00949 µM): 161%
- viability, T/C (second compound 0.316 µM, first compound 0.03 µM): 223%
- viability, T/C (second compound 0.316 µM, first compound 0.0949 µM): 187%
- viability, T/C (second compound 0.316 µM, first compound 0.3 µM): 137%
- viability, T/C (second compound 0.316 µM, first compound 0.949 µM): 97.3%
- viability, T/C (second compound 0.316 µM, first compound 3 µM): 75.4%
- viability, T/C (second compound 1 µM, first compound 0.00949 µM): 181%
- viability, T/C (second compound 1 µM, first compound 0.03 µM): 201%
- viability, T/C (second compound 1 µM, first compound 0.0949 µM): 144%
- viability, T/C (second compound 1 µM, first compound 0.3 µM): 104%
- viability, T/C (second compound 1 µM, first compound 0.949 µM): 80.4%
- viability, T/C (second compound 1 µM, first compound 3 µM): 66.6%
- viability, T/C (second compound 3.16 µM, first compound 0.00949 µM): 180%
- viability, T/C (second compound 3.16 µM, first compound 0.03 µM): 174%
- viability, T/C (second compound 3.16 µM, first compound 0.0949 µM): 113%
- viability, T/C (second compound 3.16 µM, first compound 0.3 µM): 80.5%
- viability, T/C (second compound 3.16 µM, first compound 0.949 µM): 59%
- viability, T/C (second compound 3.16 µM, first compound 3 µM): 51.7%
- viability, T/C (second compound 10 µM, first compound 0.00949 µM): 177%
- viability, T/C (second compound 10 µM, first compound 0.03 µM): 148%
- viability, T/C (second compound 10 µM, first compound 0.0949 µM): 112%
- viability, T/C (second compound 10 µM, first compound 0.3 µM): 76.7%
- viability, T/C (second compound 10 µM, first compound 0.949 µM): 41.8%
- viability, T/C (second compound 10 µM, first compound 3 µM): 40.5%

SMILES: C=C(F)C(=O)N1CCN(c2nc(OCC3CCCN3C)nc3c2CCN(c2cccc4cccc(Cl)c24)C3)CC1CC#N (stereo unspecified) + Cc1c(S(C)(=O)=O)c(-c2cc(F)cc(N3CCN(c4ccc(NS(=O)(=O)c5ccc(NC(CCN6CCC(C(=O)OCCCP(=O)(O)O)CC6)CSc6ccccc6)c(S(=O)(=O)C(F)(F)F)c5)cc4)CC3)c2)c(-c2ccc(Cl)cc2)n1C(C)C
- IC50 [1]: 5610 nM
- IC50 [2]: 5890 nM
- IC50 [3]: 4120 nM
- IC50 [10]: 2530 nM
- IC50 [11]: 2430 nM
- viability, T/C [4]: 93.8%
- viability, T/C [5]: 86.7%
- viability, T/C (second compound 0.1 µM, first compound 0.316 µM): 106%
- viability, T/C (second compound 0.1 µM, first compound 1 µM): 90.9%
- viability, T/C (second compound 0.1 µM, first compound 3.16 µM): 118%
- viability, T/C (second compound 0.1 µM, first compound 10 µM): 0.36%
- viability, T/C [6]: 130%
- viability, T/C [7]: 129%
- viability, T/C (second compound 0.316 µM, first compound 0.316 µM): 113%
- viability, T/C (second compound 0.316 µM, first compound 1 µM): 125%
- viability, T/C (second compound 0.316 µM, first compound 3.16 µM): 108%
- viability, T/C (second compound 0.316 µM, first compound 10 µM): 0.3%
- viability, T/C [8]: 124%
- viability, T/C [9]: 136%
- viability, T/C (second compound 1 µM, first compound 0.316 µM): 133%
- viability, T/C (second compound 1 µM, first compound 1 µM): 131%
- viability, T/C (second compound 1 µM, first compound 3.16 µM): 64.8%
- viability, T/C (second compound 1 µM, first compound 10 µM): 0.25%
- viability, T/C (second compound 3.16 µM, first compound 0.0316 µM): 161%
- viability, T/C (second compound 3.16 µM, first compound 0.1 µM): 149%
- viability, T/C (second compound 3.16 µM, first compound 0.316 µM): 144%
- viability, T/C (second compound 3.16 µM, first compound 1 µM): 185%
- viability, T/C (second compound 3.16 µM, first compound 3.16 µM): 23.6%
- viability, T/C (second compound 3.16 µM, first compound 10 µM): 0.3%
- viability, T/C (second compound 10 µM, first compound 0.0316 µM): 179%
- viability, T/C (second compound 10 µM, first compound 0.1 µM): 191%
- viability, T/C (second compound 10 µM, first compound 0.316 µM): 196%
- viability, T/C (second compound 10 µM, first compound 1 µM): 202%
- viability, T/C (second compound 10 µM, first compound 3.16 µM): 15.2%
- viability, T/C (second compound 10 µM, first compound 10 µM): 0.27%
